Article PMC4357444, “Accumulation of Squalene in a Microalga Chlamydomonas reinhardtii by Genetic Modification of Squalene Synthase and Squalene Epoxidase Genes” (PLoS ONE, 2015)

Biological target: T1, CrSQS (Chlamydomonas reinhardtii, UniProt A0A2K3DXC5)
T1 construct: gene CHLRE_03g175250v5; Met-1 to Asp-397, C-terminal 64 residues (transmembrane region) removed; C-terminal 6xHis (pET-21b), E. coli BL21(DE3), TALON purified, 46 kDa
Assay: radiolabel TLC assay of squalene formation
Format: biochemical
Settings: 25 uM (1-14C) FPP, 2.5 mM NADPH, 5 mM MgCl2 or 2 mM MnCl2, pH 7.4, 30 °C; labelled compound; 2.5 mM NADPH (with glucose-6-phosphate dehydrogenase regeneration) against no NADPH

T1 sequence (A0A2K3DXC5 entry or part of it): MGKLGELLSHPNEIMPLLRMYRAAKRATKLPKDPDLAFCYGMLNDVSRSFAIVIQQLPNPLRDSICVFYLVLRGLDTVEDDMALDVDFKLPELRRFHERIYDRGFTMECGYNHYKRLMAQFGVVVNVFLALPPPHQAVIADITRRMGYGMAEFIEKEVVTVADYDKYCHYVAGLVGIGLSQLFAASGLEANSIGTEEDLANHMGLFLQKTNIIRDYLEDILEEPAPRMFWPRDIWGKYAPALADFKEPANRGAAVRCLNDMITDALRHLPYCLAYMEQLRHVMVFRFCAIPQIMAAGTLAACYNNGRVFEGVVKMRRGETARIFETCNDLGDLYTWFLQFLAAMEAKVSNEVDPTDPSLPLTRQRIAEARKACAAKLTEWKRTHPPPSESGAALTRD

SMILES: NC(=O)C1=CN([C@@H]2O[C@H](COP(=O)(O)OP(=O)(O)OC[C@H]3O[C@@H](n4cnc5c(N)ncnc54)[C@H](OP(=O)(O)O)[C@@H]3O)[C@@H](O)[C@H]2O)C=CC1 [NADPH]
- radiolabel TLC assay of squalene formation: When NADPH was removed, radiolabeled squalene was not detected in any sample
